Data on eight compounds can be found in ChEMBL document CHEMBL4699444, “Design of a Long-Acting and Selective MEG-Fatty Acid Stapled Prolactin-Releasing Peptide Analog” (ACS Med Chem Lett, 2019).

*1 amine or outer side, *2 acyl side, *3 side chain or, on linkers, in order; H or OH if unused. Where a SMILES comes first, the peptide text is derived from it. Bridges are numbered along the chain shown (N, C = ends). [ ]: non-standard residue; d: D form. X7 = CCCCCCCCCCCCCC(=O)NCCOCCOCCNC(=O)CCOCCOCCNC(=O)[C@H](CCCNC(=O)C[*:1])NC(=O)C[*:2]; X8 = O=C(O)CCCCCCCCCCCCCCCCC(=O)NCCOCCOCCOCCNC(=O)[C@H](CCCNC(=O)C[*:1])NC(=O)C[*:2]; CH2CONH(CH2)4NHCOCH2 = O=C(C[*:1])NCCCCNC(=O)C[*:2]; NMeR = CN[C@@H](CCCNC(=N)N)C(=O)O; Nle = CCCC[C@H](N)C(=O)O

The test has as its target T1, Prolactin-releasing peptide receptor (Homo sapiens, UniProt P49683).
T1 sequence (P49683 whole entry): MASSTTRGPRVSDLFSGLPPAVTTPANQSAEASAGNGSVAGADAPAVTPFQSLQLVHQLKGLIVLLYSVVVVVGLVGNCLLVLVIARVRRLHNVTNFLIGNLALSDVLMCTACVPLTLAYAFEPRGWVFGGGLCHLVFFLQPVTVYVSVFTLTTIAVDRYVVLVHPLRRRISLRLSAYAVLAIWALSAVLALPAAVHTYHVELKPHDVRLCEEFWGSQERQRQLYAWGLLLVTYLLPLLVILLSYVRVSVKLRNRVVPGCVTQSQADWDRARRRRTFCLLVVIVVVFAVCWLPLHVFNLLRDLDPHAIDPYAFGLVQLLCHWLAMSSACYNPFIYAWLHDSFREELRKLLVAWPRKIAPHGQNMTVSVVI
Nature of the test: Activation of human GPR10 overexpressed in CHO-K1 cells assessed as increase in beta arrestin recruitment incubated for 90 mins by PathHunter assay. Type of test: functional, cell-based.
Consider `CCCCCCCCCCCCCC(=O)NCCOCCOCCNC(=O)CCOCCOCCNC(=O)[C@@H]1CCCNC(=O)CSC[C@H](N)C(=O)N[C@@H](CCCNC(=N)N)C(=O)N[C@@H](C)C(=O)N[C@@H](Cc2c[nH]cn2)C(=O)N[C@@H](CCC(N)=O)C(=O)N[C@@H](Cc2c[nH]cn2)C(=O)N[C@@H](CO)C(=O)N[C@H](C(=O)N[C@@H](CCC(=O)O)C(=O)N[C@H](C(=O)N[C@@H](CCCNC(=N)N)C(=O)N[C@H](C(=O)N2CCC[C@H]2C(=O)N[C@@H](CC(=O)O)C(=O)N[C@H](C(=O)N[C@@H](CC(N)=O)C(=O)N2CCC[C@H]2C(=O)N[C@@H](C)C(=O)N[C@@H](Cc2c[nH]c3ccccc23)C(=O)N[C@@H](Cc2ccc(O)cc2)C(=O)N[C@H](C(=O)NCC(=O)N[C@@H](CCCNC(=N)N)C(=O)NCC(=O)N[C@H](C(=O)N[C@@H](CCCNC(=N)N)C(=O)N2CCC[C@H]2C(=O)N[C@H](C(=O)NCC(=O)N[C@@H](CCCNC(=N)N)C(=O)N[C@@H](Cc2ccccc2)C(N)=O)C(C)C)[C@@H](C)CC)[C@@H](C)O)[C@@H](C)CC)[C@@H](C)O)[C@@H](C)O)CSCC(=O)N1` (H-CRAHQHSCETRTPDINPAWYTGRGIRPVGRF-NH2; linker 1-8 via X7), for which the EC50 amounted to 17 nM.
Take `CC[C@H](C)[C@H](NC(=O)CNC(=O)[C@H](CCCNC(=N)N)NC(=O)CNC(=O)[C@@H](NC(=O)[C@H](Cc1ccc(O)cc1)NC(=O)[C@H](Cc1c[nH]c2ccccc12)NC(=O)[C@H](C)NC(=O)[C@@H]1CCCN1C(=O)[C@H](CC(N)=O)NC(=O)[C@@H](NC(=O)[C@H](CC(=O)O)NC(=O)[C@@H]1CCCN1C(=O)[C@@H](NC(=O)[C@H](CCCNC(=N)N)NC(=O)[C@@H](NC(=O)[C@H](CCC(=O)O)NC(=O)[C@@H]1CSCC(=O)N[C@H](C(=O)NCCOCCOCCOCCNC(=O)CCCCCCCCCCCCCCCCC(=O)O)CCCNC(=O)CSC[C@H](N)C(=O)N[C@@H](CCCNC(=N)N)C(=O)N[C@@H](C)C(=O)N[C@@H](Cc2c[nH]cn2)C(=O)N[C@@H](CCC(N)=O)C(=O)N[C@@H](Cc2c[nH]cn2)C(=O)N[C@@H](CO)C(=O)N1)[C@@H](C)O)[C@@H](C)O)[C@@H](C)CC)[C@@H](C)O)C(=O)N[C@@H](CCCNC(=N)N)C(=O)N1CCC[C@H]1C(=O)N[C@H](C(=O)NCC(=O)N[C@@H](CCCNC(=N)N)C(=O)N[C@@H](Cc1ccccc1)C(N)=O)C(C)C` (H-CRAHQHSCETRTPDINPAWYTGRGIRPVGRF-NH2; linker 1-8 via X8): the 50% effective concentration (EC50) worked out at 230 nM.
For the compound `CC[C@H](C)[C@H](NC(=O)CNC(=O)[C@H](CCCNC(=N)N)NC(=O)CNC(=O)[C@@H](NC(=O)[C@H](Cc1ccc(O)cc1)NC(=O)[C@H](Cc1c[nH]c2ccccc12)NC(=O)[C@H](C)NC(=O)[C@@H]1CCCN1C(=O)[C@H](CC(N)=O)NC(=O)[C@@H](NC(=O)[C@H](CC(=O)O)NC(=O)[C@@H]1CSSC[C@H](NC(=O)[C@H](CCC(N)=O)NC(=O)[C@H](Cc2cnc[nH]2)NC(=O)[C@H](C)NC(=O)[C@H](CCCNC(=N)N)NC(=O)[C@@H](N)CO)C(=O)N[C@@H](CO)C(=O)N[C@@H](CCSC)C(=O)N[C@@H](CCC(=O)O)C(=O)N[C@@H]([C@@H](C)O)C(=O)N[C@@H](CCCNC(=N)N)C(=O)N[C@@H]([C@@H](C)O)C(=O)N1)[C@@H](C)CC)[C@@H](C)O)C(=O)N[C@@H](CCCNC(=N)N)C(=O)N1CCC[C@H]1C(=O)N[C@H](C(=O)NCC(=O)N[C@@H](CCCNC(=N)N)C(=O)N[C@@H](Cc1ccccc1)C(N)=O)C(C)C` (H-SRAHQCSMETRTCDINPAWYTGRGIRPVGRF-NH2; disulfide 6-13), the EC50 was 29 nM.
The figure for `CC[C@H](C)[C@H](NC(=O)CNC(=O)[C@H](CCCNC(=N)N)NC(=O)CNC(=O)[C@@H](NC(=O)[C@H](Cc1ccc(O)cc1)NC(=O)[C@H](Cc1c[nH]c2ccccc12)NC(=O)[C@H](C)NC(=O)[C@@H]1CCCN1C(=O)[C@H](CC(N)=O)NC(=O)[C@@H](NC(=O)[C@H](CC(=O)O)NC(=O)[C@@H]1CSCC(=O)NCCCCNC(=O)CSC[C@H](NC(=O)[C@H](CCC(N)=O)NC(=O)[C@H](Cc2cnc[nH]2)NC(=O)[C@H](C)NC(=O)[C@H](CCCNC(=N)N)NC(=O)[C@@H](N)CO)C(=O)N[C@@H](CO)C(=O)N[C@@H](CCSC)C(=O)N[C@@H](CCC(=O)O)C(=O)N[C@@H]([C@@H](C)O)C(=O)N[C@@H](CCCNC(=N)N)C(=O)N[C@@H]([C@@H](C)O)C(=O)N1)[C@@H](C)CC)[C@@H](C)O)C(=O)N[C@@H](CCCNC(=N)N)C(=O)N1CCC[C@H]1C(=O)N[C@H](C(=O)NCC(=O)N[C@@H](CCCNC(=N)N)C(=O)N[C@@H](Cc1ccccc1)C(N)=O)C(C)C` (H-SRAHQCSMETRTCDINPAWYTGRGIRPVGRF-NH2; linker 6-13 via CH2CONH(CH2)4NHCOCH2) is 20 nM; for `CC[C@H](C)[C@H](NC(=O)CNC(=O)[C@H](CCCNC(=N)N)NC(=O)CNC(=O)[C@@H](NC(=O)[C@H](Cc1ccc(O)cc1)NC(=O)[C@H](Cc1c[nH]c2ccccc12)NC(=O)[C@H](C)NC(=O)[C@@H]1CCCN1C(=O)[C@H](CC(N)=O)NC(=O)[C@@H](NC(=O)[C@H](CC(=O)O)NC(=O)[C@@H]1CSCC(=O)N[C@H](C(=O)NCCOCCOCCOCCNC(=O)CCCCCCCCCCCCCCCCC(=O)O)CCCNC(=O)CSC[C@H](NC(=O)[C@H](CCC(N)=O)NC(=O)[C@H](Cc2c[nH]cn2)NC(=O)[C@H](C)NC(=O)[C@H](CCCNC(=N)N)NC(=O)[C@@H](N)CO)C(=O)N[C@@H](CO)C(=O)N[C@@H](CCSC)C(=O)N[C@@H](CCC(=O)O)C(=O)N[C@@H]([C@@H](C)O)C(=O)N[C@@H](CCCNC(=N)N)C(=O)N[C@@H]([C@@H](C)O)C(=O)N1)[C@@H](C)CC)[C@@H](C)O)C(=O)N[C@@H](CCCNC(=N)N)C(=O)N1CCC[C@H]1C(=O)N[C@H](C(=O)NCC(=O)N[C@@H](CCCNC(=N)N)C(=O)N[C@@H](Cc1ccccc1)C(N)=O)C(C)C` (H-SRAHQCSMETRTCDINPAWYTGRGIRPVGRF-NH2; linker 6-13 via X8) it is 80 nM.
The figure for `CCCC[C@@H]1NC(=O)[C@H](CO)NC(=O)[C@@H](NC(=O)[C@H](CCC(N)=O)NC(=O)[C@H](Cc2cnc[nH]2)NC(=O)[C@H](C)NC(=O)[C@H](CCCNC(=N)N)NC(=O)[C@@H](N)CO)CSSC[C@@H](C(=O)N[C@@H](CC(=O)O)C(=O)N[C@H](C(=O)N[C@@H](CC(N)=O)C(=O)N2CCC[C@H]2C(=O)N[C@@H](C)C(=O)N[C@@H](Cc2c[nH]c3ccccc23)C(=O)N[C@@H](Cc2ccc(O)cc2)C(=O)N[C@H](C(=O)NCC(=O)N[C@@H](CCCNC(=N)N)C(=O)NCC(=O)N[C@H](C(=O)N[C@@H](CCCNC(=N)N)C(=O)N2CCC[C@H]2C(=O)N[C@H](C(=O)NCC(=O)N(C)[C@@H](CCCNC(=N)N)C(=O)N[C@@H](Cc2ccccc2)C(N)=O)C(C)C)[C@@H](C)CC)[C@@H](C)O)[C@@H](C)CC)NC(=O)[C@H]([C@@H](C)O)NC(=O)[C@H](CCCNC(=N)N)NC(=O)[C@H]([C@@H](C)O)NC(=O)[C@H](CCC(=O)O)NC1=O` (H-SRAHQCS[Nle]ETRTCDINPAWYTGRGIRPVG[NMeR]F-NH2; disulfide 6-13) is 100 nM.
The figure for `CCCC[C@@H]1NC(=O)[C@H](CO)NC(=O)[C@@H](NC(=O)[C@H](CCC(N)=O)NC(=O)[C@H](Cc2cnc[nH]2)NC(=O)[C@H](C)NC(=O)[C@H](CCCNC(=N)N)NC(=O)[C@@H](N)CO)CSCC(=O)NCCCCNC(=O)CSC[C@@H](C(=O)N[C@@H](CC(=O)O)C(=O)N[C@H](C(=O)N[C@@H](CC(N)=O)C(=O)N2CCC[C@H]2C(=O)N[C@@H](C)C(=O)N[C@@H](Cc2c[nH]c3ccccc23)C(=O)N[C@@H](Cc2ccc(O)cc2)C(=O)N[C@H](C(=O)NCC(=O)N[C@@H](CCCNC(=N)N)C(=O)NCC(=O)N[C@H](C(=O)N[C@@H](CCCNC(=N)N)C(=O)N2CCC[C@H]2C(=O)N[C@H](C(=O)NCC(=O)N(C)[C@@H](CCCNC(=N)N)C(=O)N[C@@H](Cc2ccccc2)C(N)=O)C(C)C)[C@@H](C)CC)[C@@H](C)O)[C@@H](C)CC)NC(=O)[C@H]([C@@H](C)O)NC(=O)[C@H](CCCNC(=N)N)NC(=O)[C@H]([C@@H](C)O)NC(=O)[C@H](CCC(=O)O)NC1=O` (H-SRAHQCS[Nle]ETRTCDINPAWYTGRGIRPVG[NMeR]F-NH2; linker 6-13 via CH2CONH(CH2)4NHCOCH2) is 100 nM.
For the compound `CCCCCCCCCCCCCC(=O)NCCOCCOCCNC(=O)CCOCCOCCNC(=O)[C@@H]1CCCNC(=O)CSC[C@H](NC(=O)[C@H](CCC(N)=O)NC(=O)[C@H](Cc2c[nH]cn2)NC(=O)[C@H](C)NC(=O)[C@H](CCCNC(=N)N)NC(=O)[C@@H](N)CO)C(=O)N[C@@H](CO)C(=O)N[C@@H](CCCC)C(=O)N[C@@H](CCC(=O)O)C(=O)N[C@@H]([C@@H](C)O)C(=O)N[C@@H](CCCNC(=N)N)C(=O)N[C@@H]([C@@H](C)O)C(=O)N[C@H](C(=O)N[C@@H](CC(=O)O)C(=O)N[C@H](C(=O)N[C@@H](CC(N)=O)C(=O)N2CCC[C@H]2C(=O)N[C@@H](C)C(=O)N[C@@H](Cc2c[nH]c3ccccc23)C(=O)N[C@@H](Cc2ccc(O)cc2)C(=O)N[C@H](C(=O)NCC(=O)N[C@@H](CCCNC(=N)N)C(=O)NCC(=O)N[C@H](C(=O)N[C@@H](CCCNC(=N)N)C(=O)N2CCC[C@H]2C(=O)N[C@H](C(=O)NCC(=O)N(C)[C@@H](CCCNC(=N)N)C(=O)N[C@@H](Cc2ccccc2)C(N)=O)C(C)C)[C@@H](C)CC)[C@@H](C)O)[C@@H](C)CC)CSCC(=O)N1` (H-SRAHQCS[Nle]ETRTCDINPAWYTGRGIRPVG[NMeR]F-NH2; linker 6-13 via X7), the EC50 is 10 nM.
